Measurements published in patent US10722514B2 (FLX Bio, Inc., priority 2017, dated 2020).
Structures can show the parent of a compound that is named as a salt. Where two headings read alike, the source gives them in different places.

Target: T1, recombinant full-length USP7 (Homo sapiens, UniProt Q93009)
T1 construct: A 25 μl reaction volume containing recombinant full-length USP7 (62 pM)
Assay: USP7-mediated ubiquitin-rhodamine cleavage assay
Format: biochemical
Details: recombinant full-length USP7 62 pM, ubiquitin-rhodamine 100 nM, 1 hour reaction at room temperature
How it was run: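 After compound and enzyme (62 pM) sat together 30 min at RT, 100 nM fluorogenic ubiquitin-rhodamine substrate was added for 1 h protected from light. Acetic acid quenched the reaction prior to the fluorescence read.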

[1] = 30-minute pre-incubation, read-out: Potency (USP7 IC50)
[2] = 30-minute incubation with compound, read-out: Potency: USP7 IC50
[3] = 30-minute incubation, read-out: Potency (USP7 IC50)

T1 sequence (Q93009 whole entry): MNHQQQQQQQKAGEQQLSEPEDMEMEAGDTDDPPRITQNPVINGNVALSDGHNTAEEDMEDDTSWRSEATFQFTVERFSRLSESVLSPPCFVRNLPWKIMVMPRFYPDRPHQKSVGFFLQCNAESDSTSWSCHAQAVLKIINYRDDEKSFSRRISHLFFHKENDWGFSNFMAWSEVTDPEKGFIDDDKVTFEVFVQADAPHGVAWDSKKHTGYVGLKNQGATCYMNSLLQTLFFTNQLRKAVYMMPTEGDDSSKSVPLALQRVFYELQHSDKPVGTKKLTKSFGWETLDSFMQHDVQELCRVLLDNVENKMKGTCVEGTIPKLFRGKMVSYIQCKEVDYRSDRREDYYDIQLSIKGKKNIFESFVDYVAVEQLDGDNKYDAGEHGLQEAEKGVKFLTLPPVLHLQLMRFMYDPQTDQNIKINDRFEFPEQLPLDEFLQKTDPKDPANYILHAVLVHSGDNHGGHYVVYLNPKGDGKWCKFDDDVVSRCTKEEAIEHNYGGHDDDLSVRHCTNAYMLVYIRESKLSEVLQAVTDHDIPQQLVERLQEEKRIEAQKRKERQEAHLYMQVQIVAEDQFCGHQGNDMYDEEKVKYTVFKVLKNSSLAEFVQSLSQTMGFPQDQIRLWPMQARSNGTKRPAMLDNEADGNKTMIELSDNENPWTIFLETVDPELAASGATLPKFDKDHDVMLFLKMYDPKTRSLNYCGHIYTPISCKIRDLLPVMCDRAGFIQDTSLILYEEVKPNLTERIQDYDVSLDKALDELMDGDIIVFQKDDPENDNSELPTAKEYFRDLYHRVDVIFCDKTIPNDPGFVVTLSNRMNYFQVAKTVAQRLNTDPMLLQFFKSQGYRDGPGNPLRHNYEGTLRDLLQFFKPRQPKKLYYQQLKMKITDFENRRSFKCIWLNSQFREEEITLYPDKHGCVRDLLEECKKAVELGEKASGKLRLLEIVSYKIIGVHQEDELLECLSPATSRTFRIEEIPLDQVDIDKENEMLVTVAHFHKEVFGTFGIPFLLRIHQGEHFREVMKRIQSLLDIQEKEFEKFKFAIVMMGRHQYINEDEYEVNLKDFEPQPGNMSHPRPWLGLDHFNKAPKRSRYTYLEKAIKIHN

IC50 [1] [nM] | IC50 [2] [nM] | SMILES | further results
< 1000 | – | CO[C@H]1CNC[C@H]1Oc1c(C)cc(Cl)cc1-c1ccnc2cc(Cn3c(=O)ccn(CC(F)(F)F)c3=O)sc12 [Example 655, 3-[[7-[5-chloro-2-[(3R,4S)-4-methoxypyrrolidin-3-yl]oxy-3-methyl-phenyl]thieno[3,2-b]pyridin-2-yl]methyl]-1-(2,2,2-trifluoroethyl)pyrimidine-2,4-dione] | –
< 1000 | – | CC[C@H]1C[C@@H](Oc2c(C)cc(Cl)cc2-c2ccnc3cc(Cn4c(=O)ccn(C)c4=O)sc23)CCN1 [Example 610, 3-[[7-[5-chloro-2-[[(2S,4S)-2-ethyl-4-piperidyl]oxy]-3-methyl-phenyl]thieno[3,2-b]pyridin-2-yl]methyl]-1-methylpyrimidine-2,4-dione] | –
– | < 1000 | CCC(O)c1cc2nccc(-c3cc(Cl)cc(C)c3OCC3(C#N)CNC3)c2s1 (centres unmarked) [Example 39, 3-((4-Chloro-2-(2-(1-hydroxypropyl)thieno[3,2-b]pyridin-7-yl)-6-methylphenoxy)methyl)azetidine-3-carbonitrile] | –
– | < 1000 | Cc1cc(Cl)cc(-c2ncnc3cc(CN4C(=O)C5C(C4=O)C5(C)C)sc23)c1O[C@@H]1CNCC[C@@H]1C (stereo partly drawn) [Example 350, 3-[[4-[5-chloro-3-methyl-2-[[(3S,4S)-4-methyl-3-piperidyl]oxy]phenyl]thieno[3,2-d]pyrimidin-6-yl]methyl]-6,6-dimethyl-3-azabicyclo[3.1.0]hexane-2,4-dione] | –
– | < 1000 | Cc1cc(Cl)cc(-c2ncnc3cc(CN4C(=O)CCC4=O)sc23)c1O[C@@H]1CCNC[C@H]1F [Example 306, 1-[[4-[5-chloro-2-[[(3R,4R)-3-fluoro-4-piperidyl]oxy]-3-methyl-phenyl]thieno[3,2-d]pyrimidin-6-yl]methyl]pyrrolidine-2,5-dione dihydrochloride] | –
– | 1000 to 10000 | Cc1cc(Cl)cc(-c2ccnc3cc(CO)sc23)c1O[C@@H]1CNC[C@@H]1C [Example 56, (7-(5-Chloro-3-methyl-2-(((3S,4S)-4-methylpyrrolidin-3-yl)oxy)phenyl)thieno[3,2-b]pyridin-2-yl)methanol] | –
< 1000 | – | Cc1cc(Cl)cc(-c2ccnc3cc(Cn4c(=O)ccn(C)c4=O)sc23)c1O[C@H]1CNCC[C@H]1C [Example 588, 3-[[7-[5-chloro-3-methyl-2-[[(3R,4R)-4-methyl-3-piperidyl]oxy]phenyl]thieno[3,2-b]pyridin-2-yl]methyl]-1-methyl-pyrimidine-2,4-dione; 2,2,2-trifluoroacetic acid] | –
– | 1000 to 10000 | Cc1cc(Cl)cc(-c2ncnc3cc(CN4C(=O)C5CCCCC5C4=O)sc23)c1O[C@@H]1CNC[C@@H]1F (stereo partly drawn) [Example 159, 2-((4-(5-Chloro-2-(((3R,4S)-4-fluoropyrrolidin-3-yl)oxy)-3-methylphenyl)thieno[3,2-d]pyrimidin-6-yl)methyl)hexahydro-1H-isoindole-1,3(2H)-dione] | –
< 1000 | – | Cc1cc(Cl)cc(-c2ccnc3cc(CN4C(=O)CCC4=O)sc23)c1O[C@@H]1CN[C@@H]2COC[C@@H]21 [Example 430, 1-[[7-[2-[[(3S,3aR,6aS)-2,3,3a,4,6,6a-hexahydro-1H-furo[3,4-b]pyrrol-3-yl]oxy]-5-chloro-3-methyl-phenyl]thieno[3,2-b]pyridin-2-yl]methyl]pyrrolidine-2,5-dione] | –
– | 10000 to 30000 | Cc1cc(Cl)cc(-c2ccnc3cc(CCN4C(=O)CCS4(=O)=O)sc23)c1OC1CCNCC1 [Example 219, 2-(2-(7-(5-chloro-3-methyl-2-(piperidin-4-yloxy)phenyl)thieno[3,2-b]pyridin-2-yl)ethyl)isothiazolidin-3-one 1,1-dioxide] | –
< 1000 | – | Cc1cc(Cl)cc(-c2ccnc3cc(Cn4c(=O)ccn(CC(F)(F)F)c4=O)sc23)c1O[C@@H]1CNC[C@@H]1C(F)F [Example 620, 3-[[7-[5-chloro-2-[(3S,4S)-4-(difluoromethyl)pyrrolidin-3-yl]oxy-3-methyl-phenyl]thieno[3,2-b]pyridin-2-yl]methyl]-1-(2,2,2-trifluoroethyl)pyrimidine-2,4-dione] | –
< 1000 | – | Cc1cc(Cl)cc(-c2ccnc3cc(Cn4c(=O)ccn(CC(F)(F)F)c4=O)sc23)c1O[C@@H]1CN[C@@H]1C [Example 591, 3-[[7-[5-chloro-3-methyl-2-[(2R,3R)-2-methylazetidin-3-yl]oxy-phenyl]thieno[3,2-b]pyridin-2-yl]methyl]-1-(2,2,2-trifluoroethyl)pyrimidine-2,4-dione] | –
– | 1000 to 10000 | Cc1cc(Cl)cc(-c2ccnc3cc(CNS(C)(=O)=O)sc23)c1O[C@@H]1CNC[C@@H]1F [Example 107, N-((7-(5-Chloro-2-(((3R,4S)-4-fluoropyrrolidin-3-yl)oxy)-3-methylphenyl)thieno[3,2-b]pyridin-2-yl)methyl)methanesulfonamide] | –
– | < 1000 | Cc1cc(Cl)cc(-c2ccnc3cc(CN4C(=O)C5CC5C4=O)sc23)c1O[C@H]1CCCNC1 (stereo partly drawn) [Example 244, 3-((7-(5-Chloro-3-methyl-2-(((S)-piperidin-3-yl)oxy)phenyl)thieno[3,2-b]pyridin-2-yl)methyl)-3-azabicyclo[3.1.0]hexane-2,4-dione] | –
< 1000 | – | COC(=O)N1CC[C@@H](Oc2c(C)cc(Cl)cc2-c2ccnc3cc(Cn4c(=O)ccn(CC(F)(F)F)c4=O)sc23)[C@@H](C)C1 [Example 643, methyl (3S,4R)-4-[4-chloro-2-[2-[[2,6-dioxo-3-(2,2,2-trifluoroethyl)pyrimidin-1-yl]methyl]thieno[3,2-b]pyridin-7-yl]-6-methyl-phenoxy]-3-methyl-piperidine-1-carboxylate] | –
– | – | Cc1cc(Cl)cc(-c2ccnc3cc(Cn4c(=O)ccn(CC(F)(F)F)c4=O)sc23)c1OC1CC(N2C[C@@H]3C[C@H]2CO3)C1 (stereo partly drawn) [Example 675, 3-[[7-[5-chloro-3-methyl-2-[3-[(1S,4S)-2-oxa-5-azabicyclo[2.2.1]heptan-5-yl]cyclobutoxy]phenyl]thieno[3,2-b]pyridin-2-yl]methyl]-1-(2,2,2-trifluoroethyl)pyrimidine-2,4-dione] | IC50 [3]: < 1000 nM
– | – | Cc1cc(Cl)cc(-c2ccnc3cc(Cn4c(=O)ccn(CC(F)(F)F)c4=O)sc23)c1OC1CCS(=O)(=O)CC1 [Example 680, 3-[[7-[5-chloro-2-(1,1-dioxoothian-4-yl)oxy-3-methyl-phenyl]thieno[3,2-b]pyridin-2-yl]methyl]-1-(2,2,2-trifluoroethyl)pyrimidine-2,4-dione] | IC50 [3]: < 1000 nM
< 1000 | – | Cc1cc(Cl)cc(-c2ncnc3cc(Cn4c(=O)ccn(CC(F)(F)F)c4=O)sc23)c1OC1CCNCC1 [Example 527, 3-[[4-[5-chloro-3-methyl-2-(4-piperidyloxy)phenyl]thieno[3,2-d]pyrimidin-6-yl]methyl]-1-(2,2,2-trifluoroethyl)pyrimidine-2,4-dione] | –
– | – | Cc1cc(Cl)cc(-c2ccnc3cc(Cn4c(=O)ccn(CC(F)(F)F)c4=O)sc23)c1OC1CC(N2[C@@H]3CC[C@H]2COC3)C1 (stereo partly drawn) [Example 676, 3-[[7-[5-chloro-3-methyl-2-[3-[(1R,5S)-3-oxa-8-azabicyclo[3.2.1]octan-8-yl]cyclobutoxy]phenyl]thieno[3,2-b]pyridin-2-yl]methyl]-1-(2,2,2-trifluoroethyl)pyrimidine-2,4-dione] | IC50 [3]: < 1000 nM
< 1000 | – | Cc1cc(Cl)cc(-c2ccnc3cc(Cn4c(=O)ccn(C)c4=O)sc23)c1O[C@@H]1CCN(C(C)C)C[C@@H]1C [Example 488, 3-[[7-[5-chloro-2-[[(3S,4R)-1-isopropyl-3-methyl-4-piperidyl]oxy]-3-methyl-phenyl]thieno[3,2-b]pyridin-2-yl]methyl]-1-methyl-pyrimidine-2,4-dione] | –
– | 1000 to 10000 | Cc1cc(Cl)cc(-c2ccnc3ccsc23)c1OC1CCCNCC1 (centres unmarked) [Example 266, 7-(2-(Azepan-4-yloxy)-5-chloro-3-methylphenyl)thieno[3,2-b]pyridine] | –
< 1000 | – | Cc1cc(Cl)cc(-c2ccnc3cc(Cn4c(=O)ccn(CC(F)(F)F)c4=O)sc23)c1O[C@@H]1CN(C2CCOC2)C[C@@H]1C (stereo partly drawn) [Example 605, 3-[[7-[5-chloro-3-methyl-2-[(3S,4S)-4-methyl-1-tetrahydrofuran-3-yl-pyrrolidin-3-yl]oxy-phenyl]thieno[3,2-b]pyridin-2-yl]methyl]-1-(2,2,2-trifluoroethyl)pyrimidine-2,4-dione] | –
– | < 1000 | Cc1cc(Cl)cc(-c2ccnc3cc(CN4C(=O)CCC4=O)sc23)c1OC1CCNCC1CO (centres unmarked) [Example 234, 1-((7-(5-Chloro-2-((3-(hydroxymethyl)piperidin-4-yl)oxy)-3-methylphenyl)thieno[3,2-b]pyridin-2-yl)methyl)pyrrolidine-2,5-dione] | –

SMILES | IC50 [1] [nM] | IC50 [2] [nM] | further results
Cc1cc(Cl)cc(-c2ccnc3cc(CN4C(=O)CCC4=O)sc23)c1OC1CN2CCC1CC2 (centres unmarked) [Example 318, 1-[[7-(5-chloro-3-methyl-2-quinuclidin-3-yloxy-phenyl)thieno[3,2-b]pyridin-2-yl]methyl]pyrrolidine-2,5-dione; 2,2,2-trifluoroacetic acid] | – | < 1000 | –
Cc1cc(Cl)cc(-c2ccnc3cc(Cn4c(=O)ccn(CC(F)(F)F)c4=O)sc23)c1OC1CC(C)(N2CCOCC2)C1 (centres unmarked) [Example 613, 3-[[7-[5-chloro-3-methyl-2-(3-methyl-3-morpholino-cyclobutoxy)phenyl]thieno[3,2-b]pyridin-2-yl]methyl]-1-(2,2,2-trifluoroethyl)pyrimidine-2,4-dione; 2,2,2-trifluoroacetic acid] | < 1000 | – | –
Cc1cc(Cl)cc(-c2ncnc3cc(Cn4c(=O)ccn(C(C)C)c4=O)sc23)c1O[C@H]1CC[C@H](N)C1 [Example 542, 3-[[4-[2-[(1S,3S)-3-aminocyclopentoxy]-5-chloro-3-methyl-phenyl]thieno[3,2-d]pyrimidin-6-yl]methyl]-1-isopropyl-pyrimidine-2,4-dione; 2,2,2-trifluoroacetic acid] | < 1000 | – | –
